This passage reports GI50 and TGI results from PubChem BioAssay (NCI).

Several values for one entry are separate records, joined by “and”; a condition that tells them apart may be missing. Equal values may be shown once.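 Where inhibition never reached the appropriate level, the endpoint shown equals the highest concentration tested. Otherwise, values were interpolated linearly from a five-concentration, 48-hour dose response in 96-well plates. GI50 marks 50% less growth. TGI: concentration producing complete growth inhibition.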

Among the test systems are COLO 205 colon; HCT-116 colon; IGROV1 ovarian; M14 melanoma; EKVX NSCLC; A498 renal; TK-10 renal; MALME-3M melanoma; HOP-92 NSCLC; A549 NSCLC.
Holding throughout (test): NCI anticancer screen, dose series, 48 h

Consider `COCC(=O)OC1CCn2c1nc1c2C(=O)C(C)=C(NC(C)=O)C1=O` (stereo not drawn), for which the GI50 in the test on COLO 205 colon was 8.72 µM; in the test on HCT-116 colon, 4.08 µM; in the test on IGROV1 ovarian, 4.3 µM; in the test with EKVX NSCLC it was 3.75 µM; in the test on MALME-3M melanoma, 2.37 µM; in the test with HOP-92 NSCLC, 1.38 µM. Further, the TGI with COLO 205 colon came to 29.9 µM; in the test with HCT-116 colon, 10.4 µM; with IGROV1 ovarian it was 32.7 µM; in the test with M14 melanoma it was 21.7 µM; in the test with EKVX NSCLC, 20.3 µM; in the test on A498 renal, 49.2 µM. The TGI with TK-10 renal is 34.5 µM; with MALME-3M melanoma, 4.94 µM and 6.11 µM; with HOP-92 NSCLC, 2.95 µM and 4.62 µM; in the test with A549 NSCLC, 47.8 µM.
Regarding `FC(F)=C(c1ccc(-c2ccc(Cl)cc2)cc1)C(F)(F)F`, the TGI in the test on COLO 205 colon was 36.1 µM; in the test with HCT-116 colon it was 32 µM; in the test with IGROV1 ovarian it was 33.9 µM; in the test with M14 melanoma, 36.1 µM; with EKVX NSCLC it was 41.5 µM; with A498 renal it was 31.9 µM. Moreover, the TGI was 29.4 µM with TK-10 renal, 31.3 µM in the test with MALME-3M melanoma, 33.4 µM in the test with HOP-92 NSCLC and 37.4 µM in the test on A549 NSCLC.
Consider `COC(=O)c1cc(C(=O)OC)cc(-c2ccc3c(c2)-c2nc4c(c(-c5ccc(OC)cc5)c2CC3)CCc2ccc(-c3cc(C(=O)OC)cc(C(=O)OC)c3)cc2-4)c1`, for which the TGI in the test with COLO 205 colon is more than 100 µM; with HCT-116 colon, more than 100 µM; in the test with M14 melanoma, more than 100 µM; in the test with EKVX NSCLC it was 31.3 µM; in the test on A498 renal it was more than 100 µM; in the test with TK-10 renal, more than 100 µM. Moreover, the TGI in the test on MALME-3M melanoma, in the test on HOP-92 NSCLC and with A549 NSCLC was more than 100 µM in each case.
`COc1ccc(/C=N/Nc2nc3ccccc3c(=O)n2-c2ccccc2)c(OCc2ccccc2)c1`: the TGI with COLO 205 colon, in the test with HCT-116 colon, with IGROV1 ovarian, with M14 melanoma, in the test on EKVX NSCLC and in the test on A498 renal was more than 100 µM in each case. Also, the TGI in the test on TK-10 renal, in the test with MALME-3M melanoma, in the test with HOP-92 NSCLC and in the test on A549 NSCLC was more than 100 µM throughout.
Regarding `Cc1cc(C)nc(NS(=O)(=O)c2ccc(Nc3c4ccccc4nc4c(C(=O)N5CCN(CCOS(C)(=O)=O)CC5)ccc(Cl)c34)cc2)n1`, the TGI with COLO 205 colon, in the test with HCT-116 colon, with IGROV1 ovarian, in the test on M14 melanoma, with A498 renal and with TK-10 renal was more than 100 µM each time. Besides, the TGI with MALME-3M melanoma, in the test on HOP-92 NSCLC and in the test on A549 NSCLC was more than 100 µM each time.
In the case of `COc1cc2nc(-c3c(F)cccc3F)n(Cc3c(F)cccc3F)c2cc1Cc1c(F)cccc1F`, the TGI with COLO 205 colon, with HCT-116 colon, in the test on M14 melanoma, with EKVX NSCLC, with A498 renal and in the test on TK-10 renal was more than 100 µM in each case. Further, the TGI in the test with MALME-3M melanoma was more than 100 µM; in the test with HOP-92 NSCLC it was more than 30.8 µM; with A549 NSCLC it was more than 100 µM.
With `Cc1cccc(NC(Nc2cccc(C)c2)=C(C(Cl)=C(Cl)Cl)[N+](=O)[O-])c1`, the TGI with COLO 205 colon was 28.3 µM; in the test with HCT-116 colon, more than 46.4 µM; in the test on IGROV1 ovarian, 20.3 µM; with M14 melanoma, more than 52 µM; in the test on EKVX NSCLC, more than 59 µM; in the test on A498 renal it was more than 86 µM. Also, the TGI was 28.5 µM in the test with TK-10 renal, 29 µM in the test on MALME-3M melanoma and more than 68 µM in the test with A549 NSCLC.
For the compound `CCOC(=O)C(C)NC(=O)N(C)C12CC3CC(CC(C3)C1)C2` (stereo not drawn), the TGI in the test with COLO 205 colon was more than 316 µM; with HCT-116 colon, more than 500 µM; in the test on IGROV1 ovarian, more than 500 µM; in the test on EKVX NSCLC, more than 500 µM; with A498 renal, 442 µM; in the test on MALME-3M melanoma, 497 µM. The TGI with HOP-92 NSCLC was 283 µM; in the test with A549 NSCLC, more than 500 µM.
On to `CCNC(=S)N/N=C/c1ccccn1`, for which the TGI in the test with COLO 205 colon is more than 100 µM; in the test with HCT-116 colon it was 73.7 µM; in the test on IGROV1 ovarian, more than 100 µM; with M14 melanoma it was 32.7 µM; with EKVX NSCLC it was more than 100 µM; with A498 renal it was 36.8 µM. Moreover, the TGI in the test on TK-10 renal is more than 100 µM; in the test with MALME-3M melanoma, more than 100 µM; in the test on A549 NSCLC, 82.1 µM.
Regarding `COC1OC2COC(C)(C)OC2C2OC(C)(C)OC12` (stereo not drawn), the TGI in the test on COLO 205 colon, in the test on HCT-116 colon, in the test on IGROV1 ovarian, with M14 melanoma, with EKVX NSCLC and in the test on A498 renal was more than 100 µM each time. Also, the TGI in the test with TK-10 renal, with MALME-3M melanoma and in the test on A549 NSCLC was more than 100 µM in each case.
For `O=C(NCCCNCCCCNCCCNC(=O)C(F)(F)F)C(F)(F)F`, the TGI in the test on COLO 205 colon, in the test on HCT-116 colon, with IGROV1 ovarian, in the test on M14 melanoma, with EKVX NSCLC and in the test with A498 renal was more than 100 µM in each case. The TGI in the test on TK-10 renal, in the test on MALME-3M melanoma and in the test with A549 NSCLC was more than 100 µM in each case.
Regarding `COC(=O)C1=C(C(=O)OC)C2(C)CCC(=O)C1O2` (stereo not drawn), the TGI in the test on COLO 205 colon, in the test with HCT-116 colon, with IGROV1 ovarian, with M14 melanoma, in the test with EKVX NSCLC and in the test with A498 renal was more than 10 µM in each case. The TGI in the test with TK-10 renal, in the test on MALME-3M melanoma and in the test with A549 NSCLC was more than 10 µM each time.
Consider `O=c1cc(-c2ccccc2F)[nH]c2cc3c(cc12)OCO3`, for which the TGI in the test with COLO 205 colon was 0.281 µM; with HCT-116 colon, more than 58.5 µM; with IGROV1 ovarian, more than 100 µM; in the test on M14 melanoma it was 5.1 µM; in the test with A498 renal it was 2.13 µM; in the test with TK-10 renal, 98.2 µM. For the same compound, the TGI with MALME-3M melanoma was more than 47.3 µM; in the test on HOP-92 NSCLC it was more than 100 µM; in the test on A549 NSCLC, more than 100 µM.
For `COc1cc(CCCOC2OC(COC3OCC(O)C(O)C3O)C(O)C(O)C2O)cc2cc(-c3ccc4c(c3)OCO4)oc12` (stereo not drawn), the TGI in the test with COLO 205 colon is more than 175 µM; in the test with HCT-116 colon it was more than 175 µM; in the test with IGROV1 ovarian, more than 175 µM; in the test with EKVX NSCLC, more than 175 µM; with A498 renal it was more than 27.7 µM; in the test with MALME-3M melanoma, more than 175 µM. Moreover, the TGI in the test with HOP-92 NSCLC and with A549 NSCLC was more than 175 µM throughout.
